{
  "source": "patent US9051350B2",
  "about": "“Macrocyclic antiproliferation agents and methods of treatment” (University of Florida Research Foundation, Inc., priority 2008, dated 2015)",
  "experiment_in_all_cases": "Cell viability assay (MTT), antiproliferative activity",
  "format_in_all_cases": "cell-based",
  "key": {"[1]": {"system": "cervical carcinoma (HeLa)", "conditions": "Homo sapiens, HeLa cells, 48 hours of incubation", "method": "(§1) Cell culture medium was purchased from Invitrogen and fetal bovine serum (FBS) from Hyclone. Cells were propagated and maintained in DMEM medium (high glucose) supplemented with 10% FBS at 37° C. humidified air and 5% CO2.\n(§2) HT29 colon adenocarcinoma cells were used for the bioassay-guided fractionation. To determine cell type selectivity, cells from four cancer cell lines (U2OS, HeLa, HT29 and IMR-32) were plated in 96-well format and incubated at 37° C. (5% CO2) for 24 hours. A dilution series of 1 in DMSO (1 μL) was then added, and after further 48 hours of incubation the cell viability was quantified using a standard assay kit based on MTT dye according to the manufacturer's instructions (Promega)."}, "[2]": {"system": "colorectal adenocarcinoma (HT29)", "conditions": "Homo sapiens, HT-29, HT29 cells, 48 hours of incubation", "method": "as §1, §2"}, "[3]": {"system": "human osteosarcoma (U2OS)", "conditions": "U2OS cells, 48 hours of incubation", "method": "as §1, §2"}, "neuroblastoma (IMR-32)": {"system": "neuroblastoma (IMR-32)", "conditions": "Homo sapiens, IMR-32 cells, 48 hours of incubation", "method": "as §1, §2"}},
  "note": "*1 amine or outer side, *2 acyl side, *3 side chain or, on linkers, in order; H or OH if unused. Where a SMILES comes first, the peptide text is derived from it. [ ]: non-standard residue; d: D form. ξ: configuration not given here. dβ3hAla(2R-Me) = C[C@@H](N[*:1])[C@@H](C)C(=O)[*:2]; X1 = CN(C(Cc1ccccc1)C1=N[C@H](C(=O)[*:2])CS1)[*:1]; X2 = CC[C@@H](N[*:1])C1=NC(C(=O)[*:2])CS1; d(aThr) = C[C@@H](O)[C@@H](N)C(=O)O; dNMeL = CN[C@H](CC(C)C)C(=O)O; ξPhLac = O=C(O)C(O)Cc1ccccc1; NMeV = CN[C@H](C(=O)O)C(C)C",
  "data": [
    {"smiles": "CC[C@H]1NC(=O)[C@@H]2CSC(=N2)C(Cc2ccccc2)N(C)C(=O)[C@@H]2CCCN2C(=O)[C@H](C(C)C)N(C)C(=O)C(Cc2ccccc2)OC(=O)[C@H](C)[C@@H](C)NC(=O)[C@@H]([C@@H](C)O)NC(=O)[C@@H](CC(C)C)N(C)C(=O)C2CSC1=N2", "note": "(stereo partly drawn) [Compound 1, grassypeptolide] (cyclo([NMeV]P[X1][X2][dNMeL][d(aThr)][dβ3hAla(2R-Me)][ξPhLac]))", "values": [
      {"measurement": "IC50", "setting": "[1]", "value": 1000, "unit": "nM"},
      {"measurement": "IC50", "setting": "[2]", "value": 1500, "unit": "nM"},
      {"measurement": "IC50", "setting": "[3]", "value": 2200, "unit": "nM"},
      {"measurement": "IC50", "setting": "neuroblastoma (IMR-32)", "value": 4.2, "unit": "µM"}
    ]}
  ]
}
